Measured values: US20100248229A1, “INVITRO HUMAN EMBRYONIC MODEL AND A METHOD THEREOF” (Stempeutics Research Private Limited, priority 2007, published 2010)
Entries after “also recorded” stand apart in the source; their conditions may differ.

How the values were obtained:
Format in all cases: cell-based, human
[1] = system: EBs derived from hESC line HUES9; test: RT-PCR of germ lineage markers and HMGB1 in LPS-exposed HUES9 EBs
From the text: EBs derived from the human embryonic stem cell (hESC) line HUES9 were exposed to 12.5 pg/ml of LPS for 48 hrs. The expression profile of the ectoderm, endoderm, mesoderm and trophectoderm lineage markers like βIII-tubulin, GATA4, BMP2, Brachury and β-hCG were studied, by RT-PCR and Immunofluorescence. Inhibition of mesoderm induction was confirmed by RT-PCR analysis for hANP, cTnT, ABCG2, GATA2, BMP4 and HAND1. Osteoblast differentiation was induced in the EBs, and confirmed by von Kosa and Alizarin red staining. A comet assay was also done to assess the degree of apoptosis in these EBs.
(§1) Exposure of EBs to LPS: EBs at day-2.5 were exposed to 12.5 pg/ml of Endotoxin/lipopolysaccharide (LPS) (Sigma) for 48 hrs supplemented in culture medium. The normal and the endotoxin treated EBs were harvested on day 4.5. Post exposure, the control and endotoxin treated EBs were divided in two groups. One group was lysed in TRIZOL for RNA isolation and the other group was fixed in 4% paraformaldehyde for immunofluorescence. The expression profile of the ectoderm, endoderm, mesoderm and trophectoderm lineage markers like PHI-tubulin, GATA4, BMP2, Brachury and β-hCG etc. were studied by RT-PCR and Immunofluorescence. The expression of the LPS-inducible and pluripotency related DNA binding protein HMGB1 was also studied in both the control and treated EBs.
RT-PCR: Total RNA from cells was isolated using TRIZOL-LS Reagent (Invitrogen) as per the manufacturer's protocol. Complementary DNA was synthesized using the SuperScript III First-Strand Synthesis System (Invitrogen) as per the manufacturer's instructions. Polymerase Chain Reaction (PCR) was carried out using 1U Tag DNA Polymerase (Sigma) and MgCl2 to a final concentration of 1.5 mM in a total volume of 25 μl/reaction. β-actin and GAPDH were used as the housekeeping controls. PCR cycles consisted of an initial denaturation at 95° C. for 5 minutes followed by 35 amplification cycles of denaturation at 94° C. for 45 seconds, annealing for 45 seconds, and extension at 72° C. for 45 seconds and final extension at 72° C. for 10 minutes.

hESCs (EB formation) = test: Effect on the formation of EBs from hESCs; conditions: 10 pg/ml and above
Protocol: Human Embryonic Stem Cells (hESCs) cultured on feeder cells of mouse or human origin, or cultured in feeder free conditions were exposed to several different dilutions of the drug for 6 days and subjected to Embryoid Body (EB) formation on non adherent plates, in presence of the drug for another 4 days. The control set was free from any extraneous addition of drugs. The formation of normal EBs in the control was evaluated by testing the expression of all the germ lineage, pluripotency and epigenomic markers as given in table Nos. 1-7 by RT-PCR, Flow Cytometry and Immunofluorescence. Alteration in the expression profiles of these genes in the treated EBs indicated a detrimental effect on embryonic development. A failure to form nicely cavitating EBs, as observed under the microscope, or a delay in the formation of the EBs as compared to the control indicated a possible embryo toxic effect of the drug.
The effect of molecules/compounds was screened. The compound, such as Rho Kinases inhibitor Y27632, 5-Azacytidine, and gram negative bacterial endotoxin lipopolysaccharide (LPS) on the formation of EBs from hESCs were screened for their toxic activity. LPS is known to be involved in genital tract infection related pathogenesis and pregnancy losses.

[2] = system: EBs derived from hESC line HUES9; test: Morphology of EBs under the microscope; conditions: 12.5 pg/ml for 48 hrs, day 4.5
From the text: as §1
The HUES9 cells were harvested on day 5 and used for induction of EBs. The control EBs were collected on day 4.5 of culture (FIG. 4b). The LPS treated EBs were also collected on day 4.5 and were compared with the normal for morphological changes under the microscope (FIG. 4c). […] The normal and LPS treated EBs were screened for pluripotency and the germ lineage markers. […] HMGB1 mRNA expression was not found in the normal EBs (FIG. 5). […] Immunofluorescence localization of HMGB1 and the mesoderm marker Brachury was done to check the protein expressions. […]

[3] = 12.5 pg/ml for 48 hrs, EBs harvested day 4.5

With lipopolysaccharide [LPS] the “expression of mesoderm markers (Brachury, BMP2, hANP, cTnT, ABCG2, GATA2, BMP4, HAND1)” value ([1]; 12.5 pg/ml for 48 hrs) was “no expression; also recorded: selectively silenced; also recorded: specific silencing”, the “mRNA expression of HMGB1, βIII-tubulin, GATA4 and β-hCG” value [1, 3] was “positive mRNA expression” and the “mRNA expression of mesoderm markers BMP4, GATA2, ABCG2, cTnT, hANP and HAND1” value [1, 3] was “absence of mRNA expressions”. The “mRNA expression of mesoderm markers Brachury and BMP2” value [1, 3] was “no mRNA expressions”, the “HMGB1 expression in EBs” value ([1]; 12.5 pg/ml for 48 hrs, not expressed in normal EBs) was “positive or induced expression; also recorded: induced” and the “functional mesoderm formation in EBs” value ([1]; exposure for 48 hrs) was “inhibited”. The “EB formation from hESCs” value (hESCs (EB formation)) was “complete inhibition of EB formation” and the “morphology (shape, size or numbers) of treated vs normal EBs” value [2] was “did not show any visible morphological differences”.
